In article PMC12010006, “Subnanomolar MAS-related G protein-coupled receptor-X2/B2 antagonists with efficacy in human mast cells and disease models” (Signal Transduction and Targeted Therapy, 2025):

Legend:
[1] = biological target: T1, MRGPRX2 (Homo sapiens, UniProt Q96LB1); assay: β-hexosaminidase release, LAD2 cells; type: cell-based; conditions: versus SP (0.3 µM)
T1 sequence (Q96LB1 1-330): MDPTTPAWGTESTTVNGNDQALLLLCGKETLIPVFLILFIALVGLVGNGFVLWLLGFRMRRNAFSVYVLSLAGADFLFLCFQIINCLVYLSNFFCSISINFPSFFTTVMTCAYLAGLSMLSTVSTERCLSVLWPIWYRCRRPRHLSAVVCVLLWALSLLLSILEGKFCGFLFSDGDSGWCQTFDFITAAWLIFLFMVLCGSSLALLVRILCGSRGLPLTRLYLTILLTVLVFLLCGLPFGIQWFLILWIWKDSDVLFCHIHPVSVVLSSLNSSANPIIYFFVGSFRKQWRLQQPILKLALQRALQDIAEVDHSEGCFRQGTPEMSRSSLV
Procedure: PSB-172656 inhibited MRGPRX2-mediated Ca^2+ mobilization in LAD2 cells (see Supplementary Fig. S4).
Fig. 6 PSB-172656 inhibits MRGPRX2-mediated mast cell degranulation. a LAD2 cells were incubated with buffer (control) or various concentrations of MRGPRX2 antagonist PSB-172656, subsequently exposed to substance P (SP, 0.3 µM), and β-hexosaminidase release was measured. […] Data are expressed as means ± SEM of 3 biological replicates. Statistical significance was determined by one-way ANOVA (Tukey’s multiple comparisons), compared to the effect of SP in the absence of PSB-172656 (P-value*** < 0.001). b Potential cytotoxicity of PSB-172656 was determined in 3-[4,5-dimethylthiazol-2-yl]-2,5-diphenyl tetrazolium bromide (MTT) assays performed on LAD2 cells. Cells were treated with different concentrations of PSB-172656 for 24 h at 37 °C, and the optic density value was determined at 570 nm (the viability of untreated cells corresponds to 100% cell viability). […] Mean fluorescence intensity (MFI) levels of e CD107a and f CD63 are depicted. […] Degranulation is characterized by the release of β-hexosaminidase, expressed as a percentage of the total content. h Human skin MCs were incubated with different concentrations of PSB-172656 for 30 min followed by stimulation with CST-14 (1 µM). […]
Degranulation as determined by β-hexosaminidase release was performed as described previously.[66],[67] […]

[2] = biological target: T1, MRGPRX2; assay: Surface expression of CD107a and CD63 (flow cytometry), LAD2 cells activated with SP; type: cell-based; conditions: 30 nM, 5 min; SP 300 nM
Procedure: The granule-associated proteins CD107a and CD63 externalize in the process of degranulation. Their quantification by flow cytometry is a reliable marker of mast cell activation, which is often used for the diagnosis of allergies and anaphylaxis in mast cell activation tests.[49],[50] Thus, the expression of CD107a and CD63 on the cell surface was determined to confirm the effects of PSB-172656 on SP-induced MRGPRX2-mediated degranulation. […] In addition to MRPGRX2, LAD2 cells also express a GPCR that is specifically activated by the complement component C3a.[51] Both receptors can activate Gαi/o proteins to promote MC activation.[48],[52]
MC degranulation was also measured by determining the cell surface expression of CD107a (Lysosomal-Associated Membrane Protein-1, LAMP-1) and CD63 (LAMP-3) after agonist stimulation.[48] LAD2 cells were preincubated with PSB-172656 or vehicle control for 5 min at 37 °C, then activated with SP (0.3 μM) and or C3a (3 nM) for 5 min at 37 °C. After 5 min of incubation, cells were fixed with 500 µL of 4% fixation buffer (Biolegend, Catalog 420801) for 15 min at room temperature. […] Cell surface expression of CD107a and CD63 was measured from the zombie-yellow negative population by a BD LSR II flow cytometer (San Jose, CA, USA) and analyzed by FlowJo software version 10.7.2 (Tree Star Inc., Ashland, OR, USA).[48],[50]

IC50 [1]: 5.26 nM | effect on SP-induced expression of CD107a and CD63 on the cell surface [2]: completely prevented
Structure (SMILES): CCc1c(C(C)C)[nH]c2nc3cc(F)c(F)cc3n2c1=O [Compound 24, 3-ethyl-7,8-difluoro-2-isopropylbenzo[4,5]imidazo [1,2-a] pyrimidin-4(1H)-one]
